The values that follow come from US9850283B2, “Macrocyclic inhibitors of the PD-1/PD-L1 and CD80(B7-1)/PD-L1 protein/protein interactions” (BRISTOL-MYERS SQUIBB COMPANY, priority 2013, dated 2017).

For this assay, the target named is T1, Human PD-L1/PD-1 (Homo sapiens, UniProt Q9NZQ7).
T1 construct: made in house; host or cells: HEK293T
Nature of the assay: HTRF PD-1-Ig/PD-L1-His binding assay (human PD-L1). An excerpt: The ability of the macrocyclic peptides of the present disclosure to bind to PD-L1 was investigated using a PD-1/PD-L1 Homogenous Time-Resolved Fluorescence (HTRF) binding assay.
Homogenous Time-Resolved Fluorescence (HTRF) Assays of Binding of Soluble PD-1 to Soluble PD-L1. Soluble PD-1 and soluble PD-L1 refers to proteins with carboxyl-end truncations that remove the transmembrane-spanning regions and are fused to heterologous sequences, specifically the Fc portion of the human immunoglobuling G sequence (Ig) or the hexahistidine epitope tag (His). All binding studies were performed in an HTRF assay buffer consisting of dPBS supplemented with 0.1% (w/v) bovine serum albumin and 0.05% (v/v) Tween-20. […] PD-L1 fusion proteins from either human, cynomologous macaques, or mouse were used. HTRF detection was achieved using europium crypate-labeled anti-Ig monoclonal antibody (1 nM final) and allophycocyanin (APC) labeled anti-His monoclonal antibody (20 nM final). Antibodies were diluted in HTRF detection buffer and 5 μl was dispensed on top of binding reaction.

The mark [1] stands for this setting: Table 8, Compound No. 1 variant macrocyclic peptides, read-out: HTRF Human PD-L1/PD-1 Binding Assay IC50.
[2] abbreviates: Table 9, Compound No. 71 variant macrocyclic peptides, read-out: HTRF Human PD-L1/PD-1 Binding Assay IC50.
The mark [3] stands for this setting: Table 7, Compound No. 99 variant macrocyclic peptides, read-out: HTRF Human PD-L1/PD-1 Binding Assay IC50.
The mark [4] stands for this setting: Table 10, Compound No. 116 variant macrocyclic peptides, read-out: HTRF Human PD-L1/PD-1 Binding Assay IC50.

pIC50: −log10 of the molar value. Like-named read-outs stand apart in the source and are kept apart here. Positions of bridges follow the written chain, without caps; N, C: chain ends. Non-standard residues stand in square brackets, D forms with d. Residues, ends and D or L forms follow the SMILES beside them. PEG12 = NCCOCCOCCOCCOCCOCCOCCOCCOCCOCCOCCOCCOCCC(=O)O; Phe(4-Cl) = N[C@@H](Cc1ccc(Cl)cc1)C(=O)O; Bta = N[C@@H](Cc1csc2ccccc12)C(=O)O; Hyp = O=C(O)[C@@H]1C[C@@H](O)CN1; NMeF = CN[C@@H](Cc1ccccc1)C(=O)O; NMeNle = CCCC[C@H](NC)C(=O)O; NMeA = CN[C@@H](C)C(=O)O; Sar = CNCC(=O)O

T1 sequence (Q9NZQ7 with tags, fused parts or gaps): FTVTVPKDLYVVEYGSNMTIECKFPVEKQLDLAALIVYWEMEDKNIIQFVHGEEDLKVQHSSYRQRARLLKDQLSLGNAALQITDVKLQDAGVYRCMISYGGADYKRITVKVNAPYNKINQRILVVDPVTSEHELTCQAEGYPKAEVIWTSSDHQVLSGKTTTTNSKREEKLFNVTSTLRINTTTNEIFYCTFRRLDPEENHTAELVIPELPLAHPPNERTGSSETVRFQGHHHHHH

On to `CCCC[C@H]1C(=O)N(C)[C@@H](CCCC)C(=O)N[C@@H](CCCNC(=N)N)C(=O)N[C@H](C(=O)NCC(N)=O)CSCC(=O)N[C@@H](Cc2ccccc2)C(=O)N(C)[C@@H](C)C(=O)N[C@@H](CC(N)=O)C(=O)N2CCC[C@H]2C(=O)N[C@@H](Cc2cnc[nH]2)C(=O)N[C@@H](CC(C)C)C(=O)N(C)CC(=O)N[C@@H](Cc2c[nH]c3ccccc23)C(=O)N[C@@H](CO)C(=O)N[C@@H](CCSC)C(=O)N1C` [Compound No. 61] ({CH2CO}-F[NMeA]NPHL[Sar]WSM[NMeNle][NMeNle]RCG-NH2; thioether N-14), for which, under setting [1], the pIC50 was 7.51.

As to `CCCC[C@H]1C(=O)N(C)[C@@H](CCCC)C(=O)N[C@@H](CCCNC(=N)N)C(=O)N[C@H](C(=O)NCC(N)=O)CSCC(=O)N[C@@H](Cc2ccccc2)C(=O)N(C)[C@@H](C)C(=O)N[C@@H](CC(N)=O)C(=O)N2CCC[C@H]2C(=O)N[C@@H](Cc2cnc[nH]2)C(=O)N[C@@H](CC(C)C)C(=O)N(C)CC(=O)N[C@@H](Cc2c[nH]c3ccccc23)C(=O)N[C@@H](CO)C(=O)N[C@@H](Cc2csc3ccccc23)C(=O)N1C` [Compound No. 64] ({CH2CO}-F[NMeA]NPHL[Sar]WS[Bta][NMeNle][NMeNle]RCG-NH2; thioether N-14), the pIC50 under setting [1] was 8.15. Regarding `CCCC[C@H]1C(=O)N[C@@H](CCCNC(=N)N)C(=O)N[C@H](C(=O)NCC(N)=O)CSCC(=O)N[C@@H](Cc2ccccc2)C(=O)N(C)[C@@H](C)C(=O)N[C@@H](CC(N)=O)C(=O)N2CCC[C@H]2C(=O)N[C@@H](Cc2cnc[nH]2)C(=O)N[C@@H](CC(C)C)C(=O)N(C)CC(=O)N[C@@H](Cc2c[nH]c3ccccc23)C(=O)N[C@@H](CO)C(=O)N[C@@H](Cc2c[nH]c3ccccc23)C(=O)N(C)[C@@H](CC(C)C)C(=O)N1C` [Compound No. 65] (HELM PEPTIDE1{[O=C(C[*:3])[*:2]].F.[meA].N.P.H.L.[Sar].W.S.W.[meL].[CCCC[C@@H](C(=O)[*:2])N(C)[*:1]].R.C.G.[am]}$PEPTIDE1,PEPTIDE1,1:R3-15:R3$$$V2.0), the pIC50 under setting [1] is 7.37.

As for `CCCC[C@H]1C(=O)N[C@@H](CCCNC(=N)N)C(=O)N[C@H](C(=O)NCC(N)=O)CSCC(=O)N[C@@H](Cc2ccccc2)C(=O)N(C)[C@@H](C)C(=O)N[C@@H](CC(N)=O)C(=O)N2CCC[C@H]2C(=O)N[C@@H](Cc2cnc[nH]2)C(=O)N[C@@H](CC(C)C)C(=O)N(C)CC(=O)N[C@@H](Cc2c[nH]c3ccccc23)C(=O)N[C@@H](CO)C(=O)N[C@@H](Cc2c[nH]c3ccccc23)C(=O)N(C)[C@@H](Cc2ccccc2)C(=O)N1C` [Compound No. 67] (HELM PEPTIDE1{[O=C(C[*:3])[*:2]].F.[meA].N.P.H.L.[Sar].W.S.W.[meF].[CCCC[C@@H](C(=O)[*:2])N(C)[*:1]].R.C.G.[am]}$PEPTIDE1,PEPTIDE1,1:R3-15:R3$$$V2.0), the pIC50 under setting [1] was 6.97. With `CCCC[C@H]1C(=O)NCC(=O)N[C@@H](CC(=O)O)C(=O)N[C@@H](C(C)C)C(=O)N(C)[C@@H](Cc2ccccc2)C(=O)N[C@@H](Cc2ccc(O)cc2)C(=O)N(C)CC(=O)N[C@@H](Cc2c[nH]c3ccccc23)C(=O)N[C@@H](Cc2ccc(O)cc2)C(=O)N[C@@H](CC(C)C)C(=O)N[C@H](C(=O)NCC(N)=O)CSCC(=O)N[C@@H](Cc2ccccc2)C(=O)N(C)[C@@H](Cc2ccccc2)C(=O)N1C` [Compound No. 78] (HELM PEPTIDE1{[O=C(C[*:3])[*:2]].F.[meF].[CCCC[C@@H](C(=O)[*:2])N(C)[*:1]].G.D.V.[meF].Y.[Sar].W.Y.L.C.G.[am]}$PEPTIDE1,PEPTIDE1,1:R3-14:R3$$$V2.0), the pIC50 under setting [2] was 7.85. For the compound `CCCC[C@H]1C(=O)N(C)CC(=O)N[C@@H](CC(=O)O)C(=O)N[C@@H](C(C)C)C(=O)N[C@@H](Cc2ccccc2)C(=O)N[C@@H](Cc2ccc(O)cc2)C(=O)N(C)CC(=O)N[C@@H](Cc2c[nH]c3ccccc23)C(=O)N[C@@H](Cc2ccc(O)cc2)C(=O)N[C@@H](CC(C)C)C(=O)N[C@H](C(=O)NCC(N)=O)CSCC(=O)N[C@@H](Cc2ccccc2)C(=O)N(C)[C@@H](Cc2ccccc2)C(=O)N1C` [Compound No. 82] (HELM PEPTIDE1{[O=C(C[*:3])[*:2]].F.[meF].[CCCC[C@@H](C(=O)[*:2])N(C)[*:1]].[Sar].D.V.F.Y.[Sar].W.Y.L.C.G.[am]}$PEPTIDE1,PEPTIDE1,1:R3-14:R3$$$V2.0), the pIC50 under setting [2] is 7.33. The same measure, in the same setting: the same measure for `CCCC[C@H]1C(=O)N(C)CC(=O)N[C@@H](CC(=O)O)C(=O)N[C@@H](C(C)C)C(=O)N(C)[C@@H](Cc2ccccc2)C(=O)N[C@@H](C)C(=O)N(C)CC(=O)N[C@@H](Cc2c[nH]c3ccccc23)C(=O)N[C@@H](Cc2ccc(O)cc2)C(=O)N[C@@H](CC(C)C)C(=O)N[C@H](C(=O)NCC(N)=O)CSCC(=O)N[C@@H](Cc2ccccc2)C(=O)N(C)[C@@H](Cc2ccccc2)C(=O)N1C` [Compound No. 83] (HELM PEPTIDE1{[O=C(C[*:3])[*:2]].F.[meF].[CCCC[C@@H](C(=O)[*:2])N(C)[*:1]].[Sar].D.V.[meF].A.[Sar].W.Y.L.C.G.[am]}$PEPTIDE1,PEPTIDE1,1:R3-14:R3$$$V2.0): 7.46. Take `CC[C@H](C)[C@@H]1NC(=O)[C@H](C(C)C)NC(=O)[C@H]([C@@H](C)CC)NC(=O)[C@@H](Cc2ccccc2)NC(=O)[C@H](Cc2ccccc2)NC(=O)CSC[C@@H](C(=O)NCC(N)=O)NC(=O)[C@H](CCCNC(=N)N)NC(=O)[C@H](Cc2ccccc2)NC(=O)[C@H](C(C)C)NC(=O)[C@H](CCCNC(=N)N)NC(=O)[C@H](CC(=O)O)NC(=O)[C@H](CCCNC(=N)N)NC1=O` [Compound No. 102] (HELM PEPTIDE1{[O=C(C[*:3])[*:2]].F.[dF].I.V.I.R.D.R.V.F.R.C.G.[am]}$PEPTIDE1,PEPTIDE1,1:R3-13:R3$$$V2.0): the pIC50 under setting [3] is under 4.70. For `CC[C@H](C)[C@@H]1NC(=O)[C@H](CC(C)C)NC(=O)[C@H](Cc2ccccc2)NC(=O)CSC[C@@H](C(=O)NCC(N)=O)NC(=O)[C@H](CCCNC(=N)N)NC(=O)[C@H](Cc2ccccc2)NC(=O)[C@H](C(C)C)NC(=O)[C@H](CCCNC(=N)N)NC(=O)[C@H](CC(=O)O)NC(=O)[C@H](CC(C)C)NC(=O)[C@H]([C@@H](C)CC)NC(=O)[C@H](C(C)C)NC1=O` [Compound No. 109] (HELM PEPTIDE1{[O=C(C[*:3])[*:2]].F.L.I.V.I.L.D.R.V.F.R.C.G.[am]}$PEPTIDE1,PEPTIDE1,1:R3-13:R3$$$V2.0), the pIC50 under setting [3] is under 4.70.

`CCCC[C@H]1C(=O)N(C)[C@@H](CCCC)C(=O)N[C@@H](CCCNC(=N)N)C(=O)N[C@H](C(=O)NCC(=O)NCCOCCOCCOCCOCCOCCOCCOCCOCCOCCOCCOCCOCCC(N)=O)CSCC(=O)N[C@@H](Cc2ccccc2)C(=O)N(C)[C@@H](C)C(=O)N[C@@H](CC(N)=O)C(=O)N2CCC[C@H]2C(=O)N[C@@H](Cc2cnc[nH]2)C(=O)N[C@@H](CC(C)C)C(=O)N(C)CC(=O)N[C@@H](Cc2c[nH]c3ccccc23)C(=O)N[C@@H](CO)C(=O)N[C@@H](Cc2c[nH]c3ccccc23)C(=O)N1C` [Compound No. 116] ({CH2CO}-F[NMeA]NPHL[Sar]WSW[NMeNle][NMeNle]RCG[PEG12]-NH2; thioether N-14): the pIC50 under setting [4] is 7.68.

Consider `CCCC[C@H]1C(=O)N(C)[C@@H](CCCC)C(=O)N[C@@H](CC(C)C)C(=O)N[C@H](C(=O)NCC(=O)NCCOCCOCCOCCOCCOCCOCCOCCOCCOCCOCCOCCOCCC(N)=O)CSCC(=O)N[C@@H](Cc2ccccc2)C(=O)N(C)[C@@H](C)C(=O)N[C@@H](CC(N)=O)C(=O)N2CCC[C@H]2C(=O)N[C@@H](Cc2cnc[nH]2)C(=O)N[C@@H](Cc2cnc[nH]2)C(=O)N[C@@H](CO)C(=O)N[C@@H](Cc2c[nH]c3ccccc23)C(=O)N[C@@H](CCCNC(=N)N)C(=O)N[C@@H](Cc2c[nH]c3ccccc23)C(=O)N1C` [Compound No. 117] ({CH2CO}-F[NMeA]NPHHSWRW[NMeNle][NMeNle]LCG[PEG12]-NH2; thioether N-14), for which the pIC50 under setting [4] is 7.68. Still for that read-out and setting: the same measure for `CCCC[C@H]1C(=O)N(C)CC(=O)N[C@@H](CC(=O)O)C(=O)N[C@@H](C(C)C)C(=O)N(C)[C@@H](Cc2ccccc2)C(=O)N[C@@H](Cc2ccc(O)cc2)C(=O)N(C)CC(=O)N[C@@H](Cc2c[nH]c3ccccc23)C(=O)N[C@@H](Cc2ccc(O)cc2)C(=O)N[C@@H](CC(C)C)C(=O)N[C@H](C(=O)NCC(=O)NCCOCCOCCOCCOCCOCCOCCOCCOCCOCCOCCOCCOCCC(N)=O)CSCC(=O)N[C@@H](Cc2ccccc2)C(=O)N(C)[C@@H](Cc2ccccc2)C(=O)N1C` [Compound No. 118] ({CH2CO}-F[NMeF][NMeNle][Sar]DV[NMeF]Y[Sar]WYLCG[PEG12]-NH2; thioether N-13): 8.52. Consider `CCCC[C@H]1C(=O)N(C)[C@@H](CCCC)C(=O)N[C@@H](CCCNC(=N)N)C(=O)N[C@H](C(=O)NCC(N)=O)CSCC(=O)N[C@@H](Cc2ccc(Cl)cc2)C(=O)N(C)[C@@H](C)C(=O)N[C@@H](CC(N)=O)C(=O)N2CCC[C@H]2C(=O)N[C@@H](Cc2cnc[nH]2)C(=O)N[C@@H](CC(C)C)C(=O)N2C[C@H](O)C[C@H]2C(=O)N[C@@H](Cc2c[nH]c3ccccc23)C(=O)N[C@@H](CO)C(=O)N[C@@H](Cc2csc3ccccc23)C(=O)N1C` [Example 1125] ({CH2CO}-[Phe(4-Cl)][NMeA]NPHL[Hyp]WS[Bta][NMeNle][NMeNle]RCG-NH2; thioether N-14), for which the pIC50 (read-out: HTRF IC50 value) was 8.30.
